Assay results published in paper PMC8041284, “Tunable Methacrylamides for Covalent Ligand Directed Release Chemistry” (Journal of the American Chemical Society, 2021).

Target: BTK (Homo sapiens, UniProt Q06187)
Details: 0.75 uM BTK, […] probe 3l, 15 min preincubation, 10 µM, inhibitor, BTK inhibition (%)

Sequence of BTK (Q06187 402-655 limits assumed): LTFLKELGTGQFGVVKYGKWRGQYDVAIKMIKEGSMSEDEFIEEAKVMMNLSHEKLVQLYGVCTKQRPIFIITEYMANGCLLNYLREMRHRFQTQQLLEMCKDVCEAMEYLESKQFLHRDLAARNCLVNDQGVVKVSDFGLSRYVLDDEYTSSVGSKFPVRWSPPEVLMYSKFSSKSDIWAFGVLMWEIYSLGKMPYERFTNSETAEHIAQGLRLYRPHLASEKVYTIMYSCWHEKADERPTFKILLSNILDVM

Compared with C=C1[C@H](CO)[C@@H](O)C[C@@H]1n1cnc2c(=O)[nH]c(N)nc21 [PCM-0095007], Nc1nc2[nH]cc(CCc3ccc(C(=O)N[C@@H](CCC(=O)O)C(=O)O)cc3)c2c(=O)[nH]1 [PCM-0215446] is lower in “BTK inhibition (%)” value: -4.7% for the first, -10.2% for the second.

Compared with COc1ccc2[nH]c([S@@+]([O-])Cc3ncc(C)c(OC)c3C)nc2c1 [PCM-0214571], COc1cc(NS(=O)(=O)c2ccc(N)cc2)nc(OC)n1 [PCM-0216005] is higher in “BTK inhibition (%)” value: -13.2% for the first, -11.6% for the second.

Compared with Nc1ccc(S(=O)(=O)Nc2ncccn2)cc1 [PCM-0214831], Cc1cc(C)nc(NS(=O)(=O)c2ccc(N)cc2)n1 [PCM-0216008] is higher in “BTK inhibition (%)” value: 10.9% for the first, 11.7% for the second.

First: C[C@H](O)[C@H](O)[C@@H](O)[C@@H](O)C=O [PCM-0214991]
Second: N[C@@H](C=O)[C@@H](O)[C@H](O)[C@H](O)CO [PCM-0215073]
The “BTK inhibition (%)” value of the first is lower: -11.7% for the first, -2.8% for the second.

Going from Cc1ccccc1C(=O)Nc1ccc(C(=O)N2CCCC(N(C)C)c3ccccc32)cc1 (centres unmarked) [PCM-0095424] to CCC(=O)NS(=O)(=O)c1ccc(-c2c(-c3ccccc3)noc2C)cc1 [PCM-0216557], the “BTK inhibition (%)” value falls from 70% to 2.3%.

First: C[C@H](CCC(=O)NCCS(=O)(=O)O)[C@H]1CC[C@H]2[C@@H]3[C@@H](O)C[C@@H]4C[C@H](O)CC[C@]4(C)[C@H]3CC[C@]12C [PCM-0214942]
Second: C=C[C@]1(C)C[C@@H](OC(=O)CSCCN(CC)CC)[C@]2(C)[C@H](C)CC[C@]3(CCC(=O)[C@H]32)[C@@H](C)[C@@H]1O [PCM-0216045]
The “BTK inhibition (%)” value of the first is higher: 4.7% for the first, 0% for the second.

Compared with Cc1cc(NS(=O)(=O)c2ccc(N)cc2)no1 [PCM-0215124], Nc1ccc(S(=O)(=O)Nc2ncccn2)cc1 [PCM-0085802] is lower in “BTK inhibition (%)” value: 7% for the first, -14% for the second.

Going from Cc1c(O)c(=O)ccn1C [PCM-0085974] to CC(=O)Oc1ccccc1C(=O)O [PCM-0064532], the “BTK inhibition (%)” value rises from -30.4% to 7.6%.

Going from CN1[C@@H]2CC[C@H]1CC(OC(=O)c1c[nH]c3ccccc13)C2 (some centres unmarked) [PCM-0216191] to CC(C(=O)O)c1cccc(Oc2ccccc2)c1 (centres unmarked) [PCM-0214813], the “BTK inhibition (%)” value rises from -12.4% to 4.8%.

First: C[C@@H]1O[C@@H]1P(=O)(O)O [PCM-0215255]
Second: O=C1O[C@H]([C@@H](O)CO)C(O)=C1O [PCM-0085940]
The “BTK inhibition (%)” value of the first is lower: -21% for the first, 5.4% for the second.

Going from COc1ccc(C[C@@H](C)NC[C@H](O)c2ccc(O)c(NC=O)c2)cc1 [PCM-0216637] to Cc1ccccc1C(=O)Nc1ccc(C(=O)N2CCCC(N(C)C)c3ccccc32)cc1 (centres unmarked) [PCM-0095419], the “BTK inhibition (%)” value falls from 6.9% to -13.6%.

Going from Cc1cc(NS(=O)(=O)c2ccc(N)cc2)no1 [PCM-0085795] to C/C=C(/C)C(=O)O[C@H]1[C@@H](OC(C)=O)c2c(ccc3ccc(=O)oc23)OC1(C)C [PCM-0216298], the “BTK inhibition (%)” value rises from -3.1% to 10%.

Compared with CC1(C)[C@@H](O[C@H]2O[C@H](C(=O)O)[C@@H](O)[C@H](O)[C@H]2O[C@@H]2O[C@H](C(=O)O)[C@@H](O)[C@H](O)[C@H]2O)CC[C@]2(C)[C@H]3C(=O)C=C4[C@@H]5C[C@@](C)(C(=O)O)CC[C@]5(C)CC[C@@]4(C)[C@]3(C)CC[C@@H]12 [PCM-0214876], CO/N=C(\C(=O)N[C@@H]1C(=O)N2C(C(=O)O)=C(CSC(=O)c3ccco3)CS[C@H]12)c1csc(N)n1 [PCM-0214692] is lower in “BTK inhibition (%)” value: 35.9% for the first, 0% for the second.

Compared with CN1[C@@H]2CC[C@H]1CC(OC(=O)c1c[nH]c3ccccc13)C2 (some centres unmarked) [PCM-0086109], CO/N=C(\C(=O)N[C@@H]1C(=O)N2C(C(=O)O)=C(CSC(=O)c3ccco3)CS[C@H]12)c1csc(N)n1 [PCM-0216235] is higher in “BTK inhibition (%)” value: -11.7% for the first, 0.8% for the second.

C[C@H](O)[C@H](O)[C@@H](O)[C@@H](O)C=O [PCM-0094862] was tested, and the “BTK inhibition (%)” value was -7.8%.

Same assay, conditions: 0.75 uM BTK, […] probe 3l, 15 min preincubation; 10 µM; inhibitor

Going from O=C(OC1C[C@H]2CC[C@@H](C1)[N+]21CCCC1)C(O)(c1ccccc1)c1ccccc1 (some centres unmarked) [PCM-0095326] to O=C(O[C@H]1C[N+]2(CCCOc3ccccc3)CCC1CC2)C(O)(c1cccs1)c1cccs1 [PCM-0214751], the “BTK inhibition (%)” value falls from 7% to -24.1%.

Compared with C[C@@H]1O[C@@H](O[C@H]2C[C@@H](O)[C@]3(CO)[C@H]4[C@H](O)C[C@]5(C)[C@@H](C6=CC(=O)OC6)CC[C@]5(O)[C@@H]4CC[C@]3(O)C2)[C@H](O)[C@H](O)[C@H]1O [PCM-0214805], C[C@@H]1CC[C@@]2(OC1)O[C@H]1C[C@H]3[C@@H]4CC=C5C[C@@H](O[C@@H]6O[C@H](CO)[C@@H](O[C@@H]7O[C@@H](C)[C@H](O)[C@@H](O)[C@H]7O)[C@H](O)[C@H]6O[C@@H]6O[C@@H](C)[C@H](O)[C@@H](O)[C@H]6O)CC[C@]5(C)[C@H]4CC[C@]3(C)[C@H]1[C@@H]2C [PCM-0214660] is higher in “BTK inhibition (%)” value: -5.4% for the first, 38.1% for the second.

Compared with Cc1cc2c(C(C)C)c(O)c(O)c(C=O)c2c(O)c1-c1c(C)cc2c(C(C)C)c(O)c(O)c(C=O)c2c1O [PCM-0064881], CC[C@@]1(O)C(=O)OCc2c1cc1n(c2=O)Cc2cc3cc(O)ccc3nc2-1 [PCM-0094873] is lower in “BTK inhibition (%)” value: 75.5% for the first, -14% for the second.

First: COC(=O)c1ccccc1C(=O)OC [PCM-0216149]
Second: CN1[C@@H]2CC(OC(=O)[C@H](CO)c3ccccc3)C[C@H]1[C@@H]1O[C@@H]12 (some centres unmarked) [PCM-0086586]
The “BTK inhibition (%)” value of the first is lower: -9.3% for the first, -3.1% for the second.

First: CN1[C@@H]2CC[C@H]1CC(OC(=O)[C@H](CO)c1ccccc1)C2 (some centres unmarked) [PCM-0095561]
Second: CC(=O)OC1CN2CCC1CC2 (centres unmarked) [PCM-0215275]
The “BTK inhibition (%)” value of the first is lower: -14.8% for the first, 4.7% for the second.

First: CCOC(=O)C1=C[C@@H](OC(CC)CC)[C@H](NC(C)=O)[C@@H](N)C1 [PCM-0095436]
Second: CC1=C[C@]23C(=O)[C@@H](C=C(CO)[C@@H](O)[C@]2(O)[C@H]1O)[C@H]1[C@@H](C[C@H]3C)C1(C)C [PCM-0216393]
The “BTK inhibition (%)” value of the first is lower: -10.2% for the first, -3.1% for the second.

First: Cn1c(CCCC(=O)O)nc2cc(N(CCCl)CCCl)ccc21 [PCM-0065281]
Second: O=P1(N(CCCl)CCCl)NCCCO1 (centres unmarked) [PCM-0064707]
The “BTK inhibition (%)” value of the first is higher: -3.9% for the first, -19.3% for the second.

Going from C[N+](C)(C)CCCCCCCCCC[N+](C)(C)C [PCM-0065265] to CCN(C)C(=O)Oc1cccc([C@H](C)N(C)C)c1 [PCM-0086345], the “BTK inhibition (%)” value falls from 11.7% to 1.6%.

First: CN(C)C(=O)Oc1ccc[n+](C)c1 [PCM-0065636]
Second: O=c1ccc2cc3ccoc3c(O)c2o1 [PCM-0216446]
The “BTK inhibition (%)” value of the first is lower: -25.7% for the first, -6.2% for the second.

Going from COc1cc([C@H]2OC[C@@H]3[C@@H]2CO[C@H]3c2cc(OC)c(O[C@@H]3O[C@H](CO)[C@@H](O)[C@H](O)[C@H]3O)c(OC)c2)cc(OC)c1O[C@@H]1O[C@H](CO)[C@@H](O)[C@H](O)[C@H]1O [PCM-0216398] to CN[C@H]1C[C@@H](N)[C@H](O)[C@@H](O[C@@H]2O[C@H](CO)[C@H](O)[C@@H]3OC4(O[C@H]23)O[C@H]([C@@H](N)CO)[C@H](O)[C@H](O)[C@H]4O)[C@@H]1O (some centres unmarked) [PCM-0095389], the “BTK inhibition (%)” value rises from -10% to 0%.

First: CC(=O)O[C@H]1C[C@@H]2CC[C@@H]3[C@H](CC[C@@]4(C)[C@H]3C[C@H]([N+]3(C)CCCCC3)[C@@H]4OC(C)=O)[C@@]2(C)C[C@@H]1[N+]1(C)CCCCC1 [PCM-0214687]
Second: C[C@H]1CC[C@]2(NC1)O[C@H]1C[C@H]3[C@@H]4CC[C@H]5C[C@@H](O)CC[C@]5(C)[C@H]4CC[C@]3(C)[C@H]1[C@@H]2C [PCM-0216325]
The “BTK inhibition (%)” value of the first is lower: -21% for the first, 13.9% for the second.

First: CC1=C(O)C(=O)C=C2C1=CC=C1[C@@]2(C)CC[C@@]2(C)[C@@H]3C[C@](C)(C(=O)O)CC[C@]3(C)CC[C@]12C [PCM-0214611]
Second: c1cc2c(cc1[C@H]1OC[C@H]3[C@@H]1CO[C@@H]3c1ccc3c(c1)OCO3)OCO2 [PCM-0094427]
The “BTK inhibition (%)” value of the first is higher: 67.7% for the first, -24.1% for the second.

Compared with O=C(O)C1C2CCC(O2)C1C(=O)O (centres unmarked) [PCM-0215947], C=C[C@@H]1C2=CCOC(=O)C2=CO[C@H]1O[C@@H]1O[C@H](CO)[C@@H](O)[C@H](O)[C@H]1O [PCM-0214971] is higher in “BTK inhibition (%)” value: -7.7% for the first, -0.8% for the second.

First: O=C(NC(=O)c1c(F)cccc1F)Nc1ccc(OC(F)(F)C(F)OC(F)(F)F)c(Cl)c1 (centres unmarked) [PCM-0216580]
Second: O=C(/C=C/c1ccccc1)OC[C@H]1O[C@@H](O[C@@H]2OC=C[C@H]3[C@H](O)[C@@H]4O[C@]4(CO)[C@@H]23)[C@H](O)[C@@H](O)[C@@H]1O [PCM-0214975]
The “BTK inhibition (%)” value of the first is higher: 22.4% for the first, -1.6% for the second.

Same assay, conditions: 10 µM; inhibitor

Going from CN1CCC(c2c[nH]c3ccc(O)cc23)CC1 [PCM-0064588] to CN1CC=C(c2ccccc2)CC1 [PCM-0214851], the “BTK inhibition (%)” value falls from 16.3% to 3.1%.

Going from CCCCCc1cc(O)cc(O)c1 [PCM-0215917] to C[C@H]1CCCC(=O)CCC/C=C/c2cc(O)cc(O)c2C(=O)O1 [PCM-0216639], the “BTK inhibition (%)” value rises from -13.9% to 10.8%.

Going from N#C[C@H](O[C@@H]1O[C@H](CO[C@@H]2O[C@H](CO)[C@@H](O)[C@H](O)[C@H]2O)[C@@H](O)[C@H](O)[C@H]1O)c1ccccc1 [PCM-0094813] to CC(C)C1=CC(=O)[C@@](C)([C@H]2[C@H](O)C[C@@]3(C)[C@@H]4CC=C5[C@@H](CC[C@@H](O[C@@H]6OC[C@@H](O)[C@H](O)[C@H]6O[C@@H]6O[C@@H](C)[C@H](O)[C@@H](O)[C@H]6O)C5(C)C)[C@]4(C)C(=O)C[C@]23C)O1 [PCM-0216419], the “BTK inhibition (%)” value rises from -12.5% to 2.3%.

Going from CC(=O)OC(C)(C)/C=C/C(=O)[C@](C)(O)[C@H]1[C@H](O)C[C@@]2(C)[C@@H]3CC=C4[C@@H](C[C@H](O)C(=O)C4(C)C)[C@]3(C)C(=O)C[C@]12C [PCM-0214542] to CC1=C2C(=O)[C@H]3[C@@H](CC=C4C[C@@H](O)CC[C@@]43C)[C@@H]2CC[C@]12O[C@@H]1C[C@H](C)CN[C@H]1[C@H]2C [PCM-0214856], the “BTK inhibition (%)” value falls from -10% to -12.5%.

First: COP(=O)(OC)SCn1c(=O)oc2cc(Cl)cnc21 [PCM-0215999]
Second: C/C=C\c1cc(OC)c(OC)cc1OC [PCM-0216406]
The “BTK inhibition (%)” value of the first is higher: -2.3% for the first, -3.9% for the second.

For C=C[C@]12CN(C)[C@@H]3[C@H]4CO[C@H](C[C@H]41)[C@]1(C(=O)Nc4ccccc41)[C@@H]32 [PCM-0216528], the “BTK inhibition (%)” value was -0.8%.
